Assay results reported in paper PMC8678048 (Frontiers in Microbiology, 2021).
Where two headings read alike, the source gives them in different places. Positions of bridges follow the written chain, without caps; N, C: chain ends. Residues, ends and D or L forms follow the SMILES beside them.

Legend:
[1] = tested on: ASFV SY18 strain; type: cell-based, African swine fever virus
[2] = tested on: human plasma (coagulation system); type: biochemical; details: pH 7.4
[3] = tested on: thrombin; type: biochemical; details: 10μM
[4] = tested on: Vero cells
[5] = tested on: PAM cells

How did the “inhibition of ASFV infection/replication” value ([1]; 5μM) turn out when `CC[C@H](C)[C@@H]1NC(=O)CNC(=O)[C@H](CO)NC(=O)[C@@H]2CSSC[C@@H](C(=O)N[C@@H](Cc3ccc(O)cc3)C(=O)O)NC(=O)[C@H](CCCCN)NC(=O)[C@@H]3CSSC[C@H](NC(=O)[C@H](CCC(N)=O)NC(=O)[C@H](Cc4ccc(O)cc4)NC(=O)[C@H](CCC(N)=O)NC(=O)[C@H](CC(N)=O)NC(=O)[C@H](Cc4ccccc4)NC(=O)[C@@H]4CCCN4C(=O)[C@@H](NC(=O)CNC(=O)[C@H](Cc4ccc(O)cc4)NC(=O)CN)CSSC[C@H](NC(=O)[C@H](Cc4ccc(O)cc4)NC(=O)CNC(=O)CNC(=O)[C@H](CCCCN)NC(=O)[C@H](Cc4ccc(O)cc4)NC(=O)CNC(=O)[C@H](CCCNC(=N)N)NC1=O)C(=O)N[C@@H](CCCCN)C(=O)NCC(=O)N[C@@H]([C@@H](C)O)C(=O)N[C@@H](Cc1ccccc1)C(=O)N[C@@H](CCCCN)C(=O)N[C@@H](CCC(N)=O)C(=O)N[C@@H]([C@@H](C)O)C(=O)N3)C(=O)N[C@@H](Cc1c[nH]cn1)C(=O)N[C@@H](CO)C(=O)N[C@@H](Cc1c[nH]cn1)C(=O)N2` [OPTX-1] (H-GYGCPFNQYQCHSHCSGIRGYKGGYCKGTFKQTCKCY-OH; disulfide 4-26, 11-34, 15-36 (inferred); N-terminus and C-terminus assumed) was run?
The value was “inhibited ASFV infection in PAM cells”.

What about the “inhibition of ASFV infection/replication” value ([1]; 10μM) of the same molecule?
Its value is “inhibited ASFV infection in PAM cells”.

And the “anticoagulant effect (plasma recalcification time)” value [2]?
The value was “show anticoagulant effects in plasma-based coagulation assays”.

What about the thrombin inhibitory effect [3] of the same molecule?
The thrombin inhibitory effect was “the activity of thrombin was inhibited”.

And the “cytotoxicity on Vero cells” value [4]?
Its value is “less cytotoxicity on Vero cells than other defensins”.

And the “overall cytotoxicity (Vero and PAM cells)” value [4]?
Its value is “relative low cytotoxicities”.

What about the “cytotoxicity on PAM cells” value [5] of the same molecule?
Its value is “more significant than on Vero cells”.
